Entries after “also recorded” stand apart in the source; their conditions may differ. Like-named read-outs stand apart in the source and are kept apart here.
How the values were obtained:
[1] = Water solubility (statement); type: physicochemical
[2] = tested on: FGF2/FGFR3-mediated growth-arrest of rat chondrosarcoma (RCS) cells; conditions: for effect on FGF2/FGFR3-mediated growth arrest (in words): FIGS. 1, 4c
Text: In this assay, the FGF2/FGFR3-mediated growth-arrest of rat chondrosarcoma (RCS) cells is used as a reporter, thus allowing for elimination of toxic compounds as false-positive hits (Krejci, et al., Invest New Drugs 2007, 25: 391-395).
Rat chondrosarcoma chondrocytes (RCS), chinese hamster ovary (CHO) cells and MM cell lines OPM2 and KMS11 were propagated in DMEM, Opti-MEM or RPMI media (Gibco, Gaitherbsburg, Md.), supplemented with 10% fetal bovine serum (Atlanta Biological, Nordeross, Ga.) and antibiotics. […] For the RCS growth-arrest experiments shown at FIGS. 1 and 4c, 1×10^4 RCS chondrocytes were seeded in 24-well tissue culture plates (Costar, Cambridge, Mass.), treated as indicated for 72 hours, and counted. FGF2 was obtained from R&D Systems (Minneapolis, Minn.); C-natriuretic peptide, suramin, NF023 and NF449 were from Calbiochem (San Diego, Calif.).

[3] = tested on: limb growth and size of cultured embryos; assay: Embryo limb culture; conditions: 30 μM; embryos cultured for six (6) days; FIG. 8
Text: FIG. 8, in accordance with an embodiment herein, depicts embryos cultured for six (6) days.

[4] = target: T1, full-length FLAG-tagged K650E-FGFR3 (Homo sapiens, UniProt P22607, K650E); assay: Cell-free K650E-FGFR3 kinase assay with STAT1 as substrate; type: biochemical; conditions: immunopurified from CHO cells; FIG. 6
T1 construct: using full-length FLAG-tagged K650E-FGFR3 that was expressed in CHO cells; made in house; host or cells: CHO cells (transient transfection, anti-FLAG immunoprecipitation)
Protocol: FIG. 6, in accordance with an embodiment herein, depicts 4,4′,4″,4′″-[carbonyl-bis[imino-5,1,3-benzenetriyl bis-{carbonylimino}]]tetrakis-{benzene-1,3-disulfonic acid} inhibits K650E-FGFR3 in a kinase assay. Cell-free K650E-FGFR3 kinase assays were carried-out using full-length FLAG-tagged K650E-FGFR3 that was expressed in CHO cells, purified by immunoprecipitation with FLAG antibody and subjected to a kinase reaction with recombinant STAT1 as a substrate and 4,4′,4″,4′″-[carbonyl-bis[imino-5,1,3-benzenetriyl bis-{carbonylimino}]]tetrakis-{benzene-1,3-disulfonic acid} added to the kinase reaction. Cells transfected with plasmid encoding green fluorescent protein (GFP) serve as a negative control for the immunoprecipitation. […]
OPM2 and KMS11 cells were lysed in ice-cold immunoprecipitation buffer (50 mM Tris-HCl pH 7.4, 150 mM NaCl, 0.5% NP-40, 1 mM EDTA, 25 mM NaF) supplemented with proteinase inhibitors and 10 mM sodium orthovanadate. […] Western blotting signal was quantified by determining the integrated optical density (I.O.D.) of a given band using Scion Image software (Scion Corporation, Frederick, Mass.). […] FGFR3-mediated phosphorylation of STAT1 was detected by western blotting with P-STAT1^Y701 antibody (Cell Signaling). […]

[5] = tested on: ERK MAP kinase phosphorylation in KMS11 and OPM2 cells; assay: FGF2-mediated ERK MAP kinase phosphorylation by western blotting in MM cell lines; type: cell-based; conditions: NF449 one hour before FGF2, FIG. 3a
Protocol: FIG. 3, in accordance with an embodiment herein, depicts 4,4′,4″,4′″-[carbonyl-bis[imino-5,1,3-benzenetriyl bis-{carbonylimino}]]tetrakis-{benzene-1,3-disulfonic acid} inhibits FGF2/FGFR3 signaling in MM cell lines OPM2 and KMS11. (a) KMS11 and OPM2 cells were serum-starved for 12 hours, treated with 4,4′,4″,4′″-[carbonyl-bis[imino-5,1,3-benzenetriyl bis-{carbonylimino}]]tetrakis-{benzene-1,3-disulfonic acid} for one hour before the treatment with FGF2 and the levels of ERK MAP kinase phosphorylation were determined by western blotting with the P-ERK1/2(Thr^202/Tyr^204) antibody. As a loading control, the membranes were reprobed with antibody recognizing ERK regardless of its phosphorylation. […] (b) The OPM2 cells were serum starved for 12 hours, pre-treated with 4,4′,4″,4′″-[carbonyl-bis[imino-5,1,3-benzenetriyl bis-{carbonylimino}]]tetrakis-{benzene-1,3-disulfonic acid} for one hour before FGF2 treatment, and analyzed for CCL3 and CCL4 expression by real-time RT-PCR as described herein. The results are expressed as the fold difference relative to control (2^ddCt). […]
Since MM represents another area of pathological FGFR3 signaling in viva, the inventors evaluated whether NF449 inhibits FGFR3 signaling in KMS11 and OPM2 MM cell lines. […]

T1 sequence (P22607 23-806 K650E): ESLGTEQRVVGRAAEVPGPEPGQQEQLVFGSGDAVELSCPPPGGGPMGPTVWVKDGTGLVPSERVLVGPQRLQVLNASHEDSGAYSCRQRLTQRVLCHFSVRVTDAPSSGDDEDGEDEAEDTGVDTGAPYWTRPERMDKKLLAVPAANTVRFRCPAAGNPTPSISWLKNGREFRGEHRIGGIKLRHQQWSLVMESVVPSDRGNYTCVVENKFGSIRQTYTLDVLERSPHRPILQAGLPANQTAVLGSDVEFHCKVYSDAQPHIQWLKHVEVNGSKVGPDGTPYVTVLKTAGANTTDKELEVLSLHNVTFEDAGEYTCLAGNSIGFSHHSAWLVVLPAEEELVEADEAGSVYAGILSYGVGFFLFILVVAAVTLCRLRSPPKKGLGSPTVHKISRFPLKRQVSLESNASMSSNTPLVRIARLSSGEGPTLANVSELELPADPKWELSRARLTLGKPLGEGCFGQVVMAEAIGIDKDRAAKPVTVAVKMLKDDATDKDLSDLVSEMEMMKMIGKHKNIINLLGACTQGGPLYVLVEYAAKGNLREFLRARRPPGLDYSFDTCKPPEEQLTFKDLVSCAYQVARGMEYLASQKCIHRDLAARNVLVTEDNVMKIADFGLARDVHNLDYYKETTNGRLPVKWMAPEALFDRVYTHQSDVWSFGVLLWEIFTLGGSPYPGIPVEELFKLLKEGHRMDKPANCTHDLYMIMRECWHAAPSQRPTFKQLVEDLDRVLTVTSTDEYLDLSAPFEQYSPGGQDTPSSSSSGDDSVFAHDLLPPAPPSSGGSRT

Question: What does the source list for `O=C(Nc1cc(C(=O)Nc2ccc(S(=O)(=O)O)cc2S(=O)(=O)O)cc(C(=O)Nc2ccc(S(=O)(=O)O)cc2S(=O)(=O)O)c1)Nc1cc(C(=O)Nc2ccc(S(=O)(=O)O)cc2S(=O)(=O)O)cc(C(=O)Nc2ccc(S(=O)(=O)O)cc2S(=O)(=O)O)c1` [NF449, 4,4′,4″,4′″-[carbonyl-bis[imino-5,1,3-benzenetriylbis-{carbonylimino}]]tetrakis-{benzene-1,3-disulfonic acid}]?
Answer: water solubility [1]: water-soluble; rescue (reversal) of the growth-arrest phenotype ([2]; 25 μM NF449, detailed cell-growth experiments, FIG. 1a, 72 hours): ~70%; active concentration range in the RCS growth-arrest assay ([2]; FGF2 5 ng/ml, 72 hours, FIG. 1a): 8 to 30 µM; rescue of the FGF2-mediated RCS growth-arrest ([2]; FIG. 1b, each agent alone, 72 hours): ~50%; effect on FGF2/FGFR3-mediated growth arrest (in words) ([2]; RCS chondrocytes): more potently that CNP; effect on FGF2/FGFR3-mediated growth arrest (in words) ([2]; RCS chondrocytes, listed as 4,4′,4″,4′″-[carbonyl-bis[imino-5,1,3-benzenetriyl bis-{carbonylimino}]]tetrakis): reversal of this phenotype; cell toxicity ([2]; RCS chondrocytes, throughout active concentration range (8-30 μM), listed as 4,4′,4″,4′″-[carbonyl-bis[imino-5,1,3-benzenetriyl bis-{carbonylimino}]]tetrakis): lack of significant; concentration range inhibiting RCS growth arrest ([2]; comparison with SU5402): 2 to 20 µM; limb growth and size [3]: greater limb growth and size; effect on K650E-FGFR3 kinase activity (Y701 phosphorylation of STAT1) [4]: inhibitory effect; also recorded: inhibited K650E-FGFR3 kinase activity; FGF2-mediated Thr202/Tyr204 phosphorylation of ERK [5]: almost completely blocked; FGF2-mediated Thr202/Tyr204 phosphorylation of ERK ([5]; listed as 4,4′,4″,4′″-[carbonyl-bis[imino-5,1,3-benzenetriyl bis-{carbonylimino}]]tetrakis): inhibited
